*1 amine or outer side, *2 acyl side, *3 side chain or, on linkers, in order; H or OH if unused. Where a SMILES comes first, the peptide text is derived from it. Bridges are numbered along the chain shown (N, C = ends). [ ]: non-standard residue; d: D form. X2 = O=C([C@H](Cc1c[nH]c2c(-c3ccc(F)cc3)cccc12)N[*:1])[*:2]; Trp(7-Ph) = N[C@@H](Cc1c[nH]c2c(-c3ccccc3)cccc12)C(=O)O; Ala(quinolin-3-yl) = N[C@@H](Cc1cnc2ccccc2c1)C(=O)O; Abu(4-yl) = O=C([C@H](CC[*:3])N[*:1])[*:2]; 2Nal = N[C@@H](Cc1ccc2ccccc2c1)C(=O)O; AEF = NCCOc1ccc(C[C@H](N)C(=O)O)cc1; Pen = CC(C)(S)[C@H](N)C(=O)O; αMeK = C[C@](N)(CCCCN)C(=O)O; Thp = NC1(C(=O)O)CCOCC1
Experiments:
[1] = Stability in simulated intestinal fluid (SIF); format: in vitro ADME; conditions: 37° C.; for SIF t1/2: 100 fold dilution of standard SIF concentration, 20 μM
Description: Studies were carried out in simulated intestinal fluid (SIF) and simulated gastric fluid (SGF) to evaluate gastric stability of the peptide inhibitors of the present invention. In addition, studies were carried out to assess redox stability of the peptide inhibitors of the present invention.
SIF was prepared by adding 6.8 g of monobasic potassium phosphate and 10.0 g of pancreatin to 1.0 L of water. After dissolution, the pH was adjusted to 6.8 using NaOH. DMSO stocks (2 mM) were first prepared for the test compounds. Aliquots of the DMSO solutions were dosed into 6 individual tubes, each containing 0.5 mL of SIF, which is pre-warmed to 37° C. The final test compound concentration was 20 μM. The vials were kept in a benchtop Thermomixer® for the duration of the experiment. At each timepoint (0, 5, 10, 20, 40, 60, or 360 minutes or 24 hours), 1.0 mL of acetonitrile containing 1% formic acid was added to one vial to terminate the reaction. Samples were stored at 4° C. until the end of the experiment. After the final timepoint is sampled, the tubes were mixed and then centrifuged at 3,000 rpm for 10 minutes. Aliquots of the supernatant were removed, diluted 1:1 into distilled water containing internal standard, and analyzed by LCMS/MS. Percent remaining at each timepoint was calculated based on the peak area response ratio of test to compound to internal standard. Time 0 was set to 100%, and all later timepoints were calculated relative to time 0. Half-lives were calculated by fitting to a first-order exponential decay equation using Graphpad.

[2] = Stability in human fecal homogenate (anaerobic); format: in vitro ADME; conditions: pH 6.8, 20% human fecal homogenate, 37° C., up to 24 hours, read-out: t1/2: Human Feces anaerobic
Description: (§1) Studies were carried out in human or cynomolgus monkey fecal homogenate to evaluate gastrointestinal stability of the peptide inhibitors of the present invention.
(§2) Fecal homogenate ([…]) was prepared by adding 4 mL of growth medium (1 liter contains 2 g peptone water powder, 2 g yeast extract, 0.1 g NaCl, 0.04 g KH2PO4, 0.01 g CaCl2.6H2O, 0.01 g MgSO4.7H2O, 2 mL Tween 80, 0.5 g bile salts, 0.5 g L-cysteine HCl, 2 g NaHCO3, and 10 μL Vitamin K, pH adjusted to 6.8, and sterilized by filtration through a 0.22 μm filter) to every gram of feces (pooled freshly collected human or cynomolgus monkey feces). The suspension was vortexed to break up large clumps, and homogenized using a bead mill homogenizer. Centrifuged the homogenate at 2800×g for 15 min. The supernatant is taken out and used for incubations. DMSO stocks (10 mM) were first prepared for the test compounds. Incubations were performed in an anaerobic chamber conditioned at 37° C. Aliquots of the DMSO solutions were dosed into 1.0 mL aliquots of 20% fecal homogenate, which are pre-warmed to 37° C. The final test compound concentration was 20 μM. At each timepoint (0, 20 min, 1, 3, 6, or 24 hours), 100 μL aliquot of each incubation mixture is taken out and added to separate tubes containing 300 μL of 50% acetonitrile/50% methanol and an internal standard to terminate the reaction. Samples were taken out of the anaerobic chamber and stored at 4° C. until the end of the experiment. After the final timepoint is sampled, the tubes were mixed and then centrifuged at 3,000 rpm for 10 minutes. Aliquots of the supernatant were removed, diluted 1:1 into distilled water containing 0.1% formic acid, and analyzed by LC/MS/MS. Percent remaining at each timepoint was calculated based on the peak area response ratio of test to compound to internal standard. Time 0 was set to 100%, and all later timepoints were calculated relative to time 0. Half-lives were calculated by fitting to a first-order exponential decay equation using Graphpad or Excel.

[3] = Stability in cynomolgus monkey fecal homogenate (anaerobic); format: in vitro ADME; conditions: pH 6.8, 20% cynomolgus monkey fecal homogenate, 37° C., up to 24 hours, read-out: t1/2: Monkey Feces anaerobic (converted)
Description: as §1, §2

[4] = tested on: Natural killer (NK) cells; format: cell-based, human
Excerpt: Where not shown, data was not yet determined.

Stability in rat plasma = format: in vitro ADME; conditions: both sexes, SD rat plasma, EDTA, 37° C., up to 24 hours, read-out: t1/2: Rat Plasma EDTA
Description: Peptides of interest (20 μM) were incubated with pre-warmed rat plasma (SD rat, mixed gender pooled, EDTA, filtered through 0.22 μm, BioreclamationIVT) at 37° C. Aliquots were taken at various time points up to 24 hours (e.g. 0, 0.25, 1, 3, 6 and 24 hr), and immediately quenched with 4 volumes of organic solvent (acetonitrile/methanol (1:1) and 0.1% formic acid, containing 1 μM internal standard). Quenched samples were stored at 4° C. until the end of the experiment and centrifuged at 4,000 rpm for 10 minutes. The supernatant were diluted 1:1 with deionized water and analyzed using LC-MS. Percentage remaining at each time point was calculated based on the peak area ratio (analyte over internal standard) relative to the initial level at time zero. Half-lives were calculated by fitting to a first-order exponential decay equation using GraphPad.

[5] = 20% fecal homogenate (supernatant)

Structure (SMILES) | SIF t1/2 [1] [h] | half-life at 20 μM [2] [h] | half-life at 20 μM [3] [h] | IC50 [4] [nM] | half-life at 20 μM (Stability in rat plasma; pooled) [h] | half-life at 20 μM [2, 5] [h] | half-life at 20 μM [3, 5] [h] | half-life at 20 μM (Stability in rat plasma) [h] | half-life at 20 μM ([1]; pH 6.8, 100 fold dilution of standard SIF concentration, read-out: SIF t1/2 (converted)) [h]
CC(=O)NCCCC[C@@H]1NC(=O)[C@H](Cc2c[nH]c3c(-c4ccc(F)cc4)cccc23)NC(=O)[C@H]([C@@H](C)O)NC(=O)[C@H](CC(N)=O)NC(=O)[C@@H](NC(C)=O)C(C)(C)SSC(C)(C)[C@@H](C(=O)N[C@@H](Cc2ccc(OCCN)cc2)C(=O)N[C@@H](Cc2ccc3ccccc3c2)C(=O)N[C@@](C)(CCCCN)C(=O)N[C@@H](CCCCNC(C)=O)C(=O)N[C@@H](CC(N)=O)C(=O)N[C@H](CCCCN)C(N)=O)NC1=O [Peptide 10, Ac-[Pen]-N-T-[W(7-(4-FPh))]-[Lys(Ac)]-[Pen]-Phe[4-(2-aminoethoxy)]-[2-Nal]-[a-MeLys]-[Lys(Ac)]-N-[(D)Lys)]-NH2] (Ac-[Pen]NT[X2]K(Ac)[Pen][AEF][2Nal][αMeK]K(Ac)N[dK]-NH2; disulfide 1-6) | 24 | > 24 | > 24 | 3.32 | > 24 | – | – | – | –
CC(=O)NCCCC[C@@H]1NC(=O)[C@H](Cc2c[nH]c3c(-c4ccccc4)cccc23)NC(=O)[C@H]([C@@H](C)O)NC(=O)[C@H](CC(N)=O)NC(=O)[C@@H](NC(C)=O)C(C)(C)SSC(C)(C)[C@@H](C(=O)N[C@@H](Cc2ccc(OCCN)cc2)C(=O)N[C@@H](Cc2cnc3ccccc3c2)C(=O)NC2(C(=O)N[C@@H](CCC(=O)O)C(=O)N[C@@H](CC(N)=O)C(=O)N[C@H](CCCCN)C(N)=O)CCOCC2)NC1=O [Peptide 13, Ac-[Pen]-N-T-[W(7-Ph)]-[Lys(Ac)]-[Pen]-Phe[4-(2-aminoethoxy)]-[3Quin]-[THP]-E-N-[(D)Lys]-NH2] (Ac-[Pen]NT[Trp(7-Ph)]K(Ac)[Pen][AEF][Ala(quinolin-3-yl)][Thp]EN[dK]-NH2; disulfide 1-6) | 24 | – | – | 1.55 | – | > 24 | > 24 | > 24 | –
CC(=O)NCCCC[C@@H]1NC(=O)[C@H](Cc2c[nH]c3c(-c4ccccc4)cccc23)NC(=O)[C@H]([C@@H](C)O)NC(=O)[C@H](CC(N)=O)NC(=O)[C@@H](NC(C)=O)C(C)(C)SSC(C)(C)[C@@H](C(=O)N[C@@H](Cc2ccc(OCCN)cc2)C(=O)N[C@@H](Cc2cnc3ccccc3c2)C(=O)N[C@@](C)(CCCCN)C(=O)N[C@@H](CCCCNC(C)=O)C(=O)N[C@@H](CC(N)=O)C(=O)N[C@H](CCCCN)C(N)=O)NC1=O [Peptide 14, Ac-[Pen]-N-T-[W(7-Ph)]-[Lys(Ac)]-[Pen]-Phe[4-(2-aminoethoxy)]-[3Quin]-[a-MeLys]-[Lys(Ac)]-N-[(D)Lys]-NH2] (Ac-[Pen]NT[Trp(7-Ph)]K(Ac)[Pen][AEF][Ala(quinolin-3-yl)][αMeK]K(Ac)N[dK]-NH2; disulfide 1-6) | 24 | – | – | 2.41 | – | > 24 | > 24 | > 24 | –
CC(=O)NCCCC[C@@H]1NC(=O)[C@H](Cc2c[nH]c3c(-c4ccccc4)cccc23)NC(=O)[C@H]([C@@H](C)O)NC(=O)[C@H](CC(N)=O)NC(=O)[C@@H](NC(C)=O)C(C)(C)SSC(C)(C)[C@@H](C(=O)N[C@@H](Cc2ccc(OCCN)cc2)C(=O)N[C@@H](Cc2cnc3ccccc3c2)C(=O)NC2(C(=O)N[C@@H](CCC(=O)O)C(=O)N[C@@H](CC(N)=O)C(=O)N[C@H](CC(C)C)C(N)=O)CCOCC2)NC1=O [Peptide 15, Ac-[Pen]-N-T-[W(7-Ph)]-[Lys(Ac)]-[Pen]-Phe[4-(2-aminoethoxy)]-[3Quin]-[THP]-E-N-[(D)Leu]-NH2] (Ac-[Pen]NT[Trp(7-Ph)]K(Ac)[Pen][AEF][Ala(quinolin-3-yl)][Thp]EN[dL]-NH2; disulfide 1-6) | 24 | – | – | 2.44 | – | > 24 | > 24 | > 24 | –
CC(=O)NCCCC[C@@H]1NC(=O)[C@H](Cc2c[nH]c3c(-c4ccccc4)cccc23)NC(=O)[C@H]([C@@H](C)O)NC(=O)[C@H](CC(N)=O)NC(=O)[C@@H](NC(C)=O)C(C)(C)SSC(C)(C)[C@@H](C(=O)N[C@@H](Cc2ccc(OCCN)cc2)C(=O)N[C@@H](Cc2cnc3ccccc3c2)C(=O)N[C@@](C)(CCCCN)C(=O)N[C@@H](CCCCNC(C)=O)C(=O)N[C@@H](CC(N)=O)C(=O)N[C@H](CC(C)C)C(N)=O)NC1=O [Peptide 16, Ac-[Pen]-N-T-[W(7-Ph)]-[Lys(Ac)]-[Pen]-Phe[4-(2-aminoethoxy)]-[3Quin]-[a-MeLys]-[Lys(Ac)]-N-[(D)Leu]-NH2] (Ac-[Pen]NT[Trp(7-Ph)]K(Ac)[Pen][AEF][Ala(quinolin-3-yl)][αMeK]K(Ac)N[dL]-NH2; disulfide 1-6) | 24 | – | – | 2.9 | – | > 24 | > 24 | > 24 | –
CC(=O)NCCCC[C@@H]1NC(=O)[C@H](Cc2c[nH]c3c(-c4ccccc4)cccc23)NC(=O)[C@H]([C@@H](C)O)NC(=O)[C@H](CCC(N)=O)NC(=O)[C@@H](NC(C)=O)CCSC[C@@H](C(=O)N[C@@H](Cc2ccc(OCCN)cc2)C(=O)N[C@@H](Cc2ccc3ccccc3c2)C(=O)N[C@@](C)(CCCCN)C(=O)N[C@@H](CCCCNC(C)=O)C(=O)N[C@@H](CC(N)=O)C(=O)N[C@H](CC(C)C)C(N)=O)NC1=O [Peptide 18, Ac-[Abu]-Q-T-[W(7-Ph)]-[Lys(Ac)]-[Cys]-Phe[4-(2-aminoethoxy)]-[2-Nal]-[a-MeLys]-[Lys(Ac)]-N-[(D)Leu]-NH2] (Ac-[Abu(4-yl)]QT[Trp(7-Ph)]K(Ac)C[AEF][2Nal][αMeK]K(Ac)N[dL]-NH2; thioether 1-6) | – | > 24 | > 24 | 6.28 | > 24 | – | – | – | 19.8

— patent US20230129095A1, “PEPTIDE INHIBITORS OF INTERLEUKIN-23 RECEPTOR AND THEIR USE TO TREAT INFLAMMATORY DISEASES” (Protagonist Therapeutics, Inc., priority 2020, published 2023)
